US20250154144A1 (CHILDREN'S HOSPITAL MEDICAL CENTER, priority 2021, published 2025)
Like-named read-outs stand apart in the source and are kept apart here.

Columns and labels:
THP1 cells = experiment: Combination drug screening, Cell Titer Glo, 10 × 10 matrix, THP1 cells; assay type: cell-based
MOLM14(D835Y) cells = assay type: cell-based; settings: MOLM14(D835Y), 10 × 10
[1] = starting conc. 2000 nM, with (+)-BAY-1251152 starting conc. 1000 nM
[2] = starting conc. 2000 nM, with Azacitidine (5-Azacytidine) starting conc. 20000 nM
[3] = starting conc. 2000 nM, with Palbociclib starting conc. 10000 nM
[4] = starting conc. 2000 nM, with Prednisolone starting conc. 10000 nM
[5] = starting conc. 2000 nM, with TNO-155 starting conc. 10000 nM
[6] = starting conc. 2000 nM, with Venetoclax (ABT-199) starting conc. 2000 nM
[7] = starting conc. 2000 nM, with Venetoclax (ABT-199) starting conc. 20000 nM
[8] = starting conc. 20000 nM, with (+)-BAY-1251152 starting conc. 1000 nM
[9] = starting conc. 20000 nM, with Azacitidine (5-Azacytidine) starting conc. 20000 nM
[10] = starting conc. 20000 nM, with Palbociclib starting conc. 10000 nM
[11] = starting conc. 20000 nM, with Prednisolone starting conc. 10000 nM
[12] = starting conc. 20000 nM, with TNO-155 starting conc. 10000 nM
[13] = starting conc. 20000 nM, with Venetoclax (ABT-199) starting conc. 2000 nM
[14] = starting conc. 20000 nM, with Venetoclax (ABT-199) starting conc. 20000 nM
[15] = title compound starting conc. 20000 nM + (+)-BAY-1251152 starting conc. 1000 nM
[16] = title compound starting conc. 20000 nM + Azacitidine (5-Azacytidine) starting conc. 20000 nM
[17] = title compound starting conc. 20000 nM + Palbociclib starting conc. 10000 nM
[18] = title compound starting conc. 20000 nM + Prednisolone starting conc. 10000 nM
[19] = title compound starting conc. 20000 nM + TNO-155 starting conc. 10000 nM
[20] = title compound starting conc. 20000 nM + Venetoclax (ABT-199) starting conc. 2000 nM
[21] = title compound starting conc. 20000 nM + Venetoclax (ABT-199) starting conc. 20000 nM
[22] = starting conc. 200 nM, with (+)-BAY-1251152 starting conc. 1000 nM
[23] = starting conc. 200 nM, with Azacitidine (5-Azacytidine) starting conc. 20000 nM
[24] = starting conc. 200 nM, with Palbociclib starting conc. 10000 nM
[25] = starting conc. 200 nM, with Prednisolone starting conc. 10000 nM
[26] = starting conc. 200 nM, with TNO-155 starting conc. 10000 nM
[27] = starting conc. 200 nM, with Venetoclax (ABT-199) starting conc. 2000 nM
[28] = starting conc. 200 nM, with Venetoclax (ABT-199) starting conc. 20000 nM

Cc1cc(-c2nc(C(=O)Nc3cc4oc(N5CCOCC5)nc4nc3N3CC[C@@H](O)C3)co2)ccn1 [CA-4948, reference compound]
Comments (THP1 cells; [1]): Antagonistic at both
Excess HSA Score (THP1 cells; [1]): 43.42
Comments (THP1 cells; [2]): Synergistic
Excess HSA Score (THP1 cells; [2]): −147.4
Comments (THP1 cells; [3]): Synergistic
Excess HSA Score (THP1 cells; [3]): −41.44
Comments (THP1 cells; [4]): Antagonistic
Excess HSA Score (THP1 cells; [4]): 28.64
Comments (THP1 cells; [5]): Antagonistic
Excess HSA Score (THP1 cells; [5]): 22.1261
Comments (THP1 cells; [6]): Antagonistic
Excess HSA Score (THP1 cells; [6]): 806.5237
Comments (THP1 cells; [7]): Synergistic; Optimal
Excess HSA Score (THP1 cells; [7]): −48.9669
Comments (THP1 cells; [8]): Antagonistic at both
Excess HSA Score (THP1 cells; [8]): 230.5
Comments (THP1 cells; [9]): Synergistic
Excess HSA Score (THP1 cells; [9]): −562.3
Comments (THP1 cells; [10]): Antagonistic
Excess HSA Score (THP1 cells; [10]): 579.4
Comments (THP1 cells; [11]): Synergistic
Excess HSA Score (THP1 cells; [11]): −33.05
Comments (THP1 cells; [12]): Additive
Excess HSA Score (THP1 cells; [12]): −0.9078
Comments (THP1 cells; [13]): Synergistic; Optimal
Excess HSA Score (THP1 cells; [13]): −352.8
Comments (THP1 cells; [14]): Synergistic; Optimal
Excess HSA Score (THP1 cells; [14]): −979.3
Excess HSA Score (MOLM14(D835Y) cells; title compound starting conc. 2000 nM + (+)-BAY-1251152 starting conc. 1000 nM): −153.6
Excess HSA Score (MOLM14(D835Y) cells; title compound starting conc. 2000 nM + Azacitidine (5-Azacytidine) starting conc. 20000 nM): −672.6
Excess HSA Score (MOLM14(D835Y) cells; title compound starting conc. 2000 nM + Palbociclib starting conc. 10000 nM): −930
Excess HSA Score (MOLM14(D835Y) cells; title compound starting conc. 2000 nM + Prednisolone starting conc. 10000 nM): −435.8
Excess HSA Score (MOLM14(D835Y) cells; title compound starting conc. 2000 nM + TNO-155 starting conc. 10000 nM): −1272
Excess HSA Score (MOLM14(D835Y) cells; title compound starting conc. 2000 nM + Venetoclax (ABT-199) starting conc. 2000 nM): −280.9
Excess HSA Score (MOLM14(D835Y) cells; title compound starting conc. 2000 nM + Venetoclax (ABT-199) starting conc. 20000 nM): −1172
Excess HSA Score (MOLM14(D835Y) cells; [15]): −195.3
Excess HSA Score (MOLM14(D835Y) cells; [16]): −612.1
Excess HSA Score (MOLM14(D835Y) cells; [17]): −90.76
Excess HSA Score (MOLM14(D835Y) cells; [18]): −397.1
Excess HSA Score (MOLM14(D835Y) cells; [19]): −1174
Excess HSA Score (MOLM14(D835Y) cells; [20]): −1088
Excess HSA Score (MOLM14(D835Y) cells; [21]): −1078.145

Cc1cnc(-c2ccc(-c3ccc(NC(=O)Nc4c(F)cc(F)cc4F)cc3F)c3c2C(=O)NC3)[nH]1 [CG-806, reference compound]
Comments (THP1 cells; [22]): Synergistic at both
Excess HSA Score (THP1 cells; [22]): −467.1
Comments (THP1 cells; [23]): Antagonistic
Excess HSA Score (THP1 cells; [23]): 45.86
Comments (THP1 cells; [24]): Antagonistic
Excess HSA Score (THP1 cells; [24]): 74.09
Comments (THP1 cells; [25]): Synergistic
Excess HSA Score (THP1 cells; [25]): −30.78
Comments (THP1 cells; [26]): Antagonistic
Excess HSA Score (THP1 cells; [26]): 12.04
Comments (THP1 cells; [27]): Synergistic; Optimal
Excess HSA Score (THP1 cells; [27]): −1194
Comments (THP1 cells; [28]): Synergistic; Optimal
Excess HSA Score (THP1 cells; [28]): −1904
Comments (THP1 cells; [8]): Synergistic at both
Excess HSA Score (THP1 cells; [8]): −821.7
Comments (THP1 cells; [9]): Synergistic
Excess HSA Score (THP1 cells; [9]): −425.4
Comments (THP1 cells; [10]): Synergistic
Excess HSA Score (THP1 cells; [10]): −65.24
Comments (THP1 cells; [11]): Antagonistic
Excess HSA Score (THP1 cells; [11]): 185.6
Comments (THP1 cells; [12]): Synergistic
Excess HSA Score (THP1 cells; [12]): −333.2
Comments (THP1 cells; [13]): Synergistic; Optimal
Excess HSA Score (THP1 cells; [13]): −9.516
Comments (THP1 cells; [14]): Synergistic; Optimal
Excess HSA Score (THP1 cells; [14]): −1150
Excess HSA Score (MOLM14(D835Y) cells; title compound starting conc. 200 nM + (+)-BAY-1251152 starting conc. 1000 nM): −340.1
Excess HSA Score (MOLM14(D835Y) cells; title compound starting conc. 200 nM + Azacitidine (5-Azacytidine) starting conc. 20000 nM): −208.9
Excess HSA Score (MOLM14(D835Y) cells; title compound starting conc. 200 nM + Palbociclib starting conc. 10000 nM): −828
Excess HSA Score (MOLM14(D835Y) cells; title compound starting conc. 200 nM + Prednisolone starting conc. 10000 nM): −264.6
Excess HSA Score (MOLM14(D835Y) cells; title compound starting conc. 200 nM + TNO-155 starting conc. 10000 nM): −776.6
Excess HSA Score (MOLM14(D835Y) cells; title compound starting conc. 200 nM + Venetoclax (ABT-199) starting conc. 2000 nM): −1066
Excess HSA Score (MOLM14(D835Y) cells; title compound starting conc. 200 nM + Venetoclax (ABT-199) starting conc. 20000 nM): −258.9
Excess HSA Score (MOLM14(D835Y) cells; [15]): −150.9
Excess HSA Score (MOLM14(D835Y) cells; [16]): −51.33
Excess HSA Score (MOLM14(D835Y) cells; [17]): −199.1
Excess HSA Score (MOLM14(D835Y) cells; [18]): 107.5
Excess HSA Score (MOLM14(D835Y) cells; [19]): −286.9
Excess HSA Score (MOLM14(D835Y) cells; [20]): −481.6
Excess HSA Score (MOLM14(D835Y) cells; [21]): −139.4

CCc1nc(C(N)=O)c(Nc2ccc(N3CCC(N4CCN(C)CC4)CC3)c(OC)c2)nc1NC1CCOCC1 [Gilteritinib hemifumarate, Gilteritinib, reference compound]
Excess HSA Score (THP1 cells; starting conc. 500 nM, with (+)-BAY-1251152 starting conc. 1000 nM): −10.1945
Excess HSA Score (THP1 cells; starting conc. 500 nM, with Azacitidine (5-Azacytidine) starting conc. 20000 nM): −354.4
Excess HSA Score (THP1 cells; starting conc. 500 nM, with Palbociclib starting conc. 10000 nM): −228
Excess HSA Score (THP1 cells; starting conc. 500 nM, with Prednisolone starting conc. 10000 nM): 119.9
Excess HSA Score (THP1 cells; starting conc. 500 nM, with TNO-155 starting conc. 10000 nM): 15.34
Excess HSA Score (THP1 cells; starting conc. 500 nM, with Venetoclax (ABT-199) starting conc. 2000 nM): −95.51
Excess HSA Score (THP1 cells; starting conc. 500 nM, with Venetoclax (ABT-199) starting conc. 20000 nM): −866.3
Excess HSA Score (THP1 cells; [8]): −484.1
Excess HSA Score (THP1 cells; [9]): −391.5
Excess HSA Score (THP1 cells; [10]): −415
Excess HSA Score (THP1 cells; [11]): −149.2201
Excess HSA Score (THP1 cells; [12]): −398.3
Excess HSA Score (THP1 cells; [13]): −448
Excess HSA Score (THP1 cells; [14]): −1390
Excess HSA Score (MOLM14(D835Y) cells; title compound starting conc. 500 nM + (+)-BAY-1251152 starting conc. 1000 nM): 161.1
Excess HSA Score (MOLM14(D835Y) cells; title compound starting conc. 500 nM + Azacitidine (5-Azacytidine) starting conc. 20000 nM): −848
Excess HSA Score (MOLM14(D835Y) cells; title compound starting conc. 500 nM + Palbociclib starting conc. 10000 nM): −910.3
Excess HSA Score (MOLM14(D835Y) cells; title compound starting conc. 500 nM + Prednisolone starting conc. 10000 nM): −285.8
Excess HSA Score (MOLM14(D835Y) cells; title compound starting conc. 500 nM + TNO-155 starting conc. 10000 nM): −773.9
Excess HSA Score (MOLM14(D835Y) cells; title compound starting conc. 500 nM + Venetoclax (ABT-199) starting conc. 2000 nM): −704
Excess HSA Score (MOLM14(D835Y) cells; title compound starting conc. 500 nM + Venetoclax (ABT-199) starting conc. 20000 nM): −237.3
Excess HSA Score (MOLM14(D835Y) cells; [15]): 43.97
Excess HSA Score (MOLM14(D835Y) cells; [16]): −117
Excess HSA Score (MOLM14(D835Y) cells; [17]): −262.1121
Excess HSA Score (MOLM14(D835Y) cells; [18]): −290.6
Excess HSA Score (MOLM14(D835Y) cells; [19]): −494.5
Excess HSA Score (MOLM14(D835Y) cells; [20]): −876.4
Excess HSA Score (MOLM14(D835Y) cells; [21]): −271.3
